Measurements taken from US10954246B2, “Compound of EOC315 Mod.I crystal form and preparation method thereof” (Taizhou EOC Pharma Co., Ltd., priority 2017, dated 2021).
Where a name gives a salt, the structure may show the parent alone.

What was measured:
[1] = system: advanced gastric cancers or gastroesophageal junction (GEJ) cancers; test: Efficacy study of EOC315 with capecitabine and cisplatinum in patients; format: in vivo, human; details: combination with capecitabine and cisplatinum
Description: After at most 6 cycles of cisplatinum treatment, both or either of capecitabine and EOC315 was delivered to a subject in a dosage previously used according to the toxic reaction conditions, until the disease progressed.
Forty-eight subjects in total were enrolled for this study. Forty-five subjects (94%) had tumor metastasis and thirty-five subjects (73%) had more than two metastatic sites thereinto. The livers of 26 subjects (54%) were involved due to the tumors. The major sites involved for the 26 subjects (54%) were gastroesophageal junctions, the major sites involved for 22 subjects (46%) were stomach, and the majority of the subjects got an ECOG score of 1 (n=41, 85%).
Thirty-nine subjects completed at least one course of treatment and got therapeutic effect evaluation. The objective response rate (ORR) was 67%. One subject (2.6%) achieved the complete response. […] It was evaluated that the objective response generally occurred in the previous two cycles of treatment and lasted for a long time, which was related closely to the duration of treatment received by the subjects. The anti-tumor effect was not related to tumor tissue type, the primary site, whether or not liver is involved, or the study center. Median progression-free survival (PFS) was 4.5 months. […] The median time to progression for patients showing tumor remission was 6.4 months. Median overall survival (OS) was estimated to be 7.8 months, and the 1-year survival rate was 33%.

[2] = target: VEGFR-2 (Vascular Endothelial Growth Factor Receptor-2) tyrosine kinase (Homo sapiens, UniProt P35968); details: cited from earlier work
[3] = system: PDGFR (Platelet-Derived Growth Factor Receptor) tyrosine kinase; details: cited from earlier work
[4] = Crystalline form after micronization (XRPD, DSC, HSM); format: physicochemical; details: micronized, D90≤15 μm
Protocol: The pressure of the micronization equipment was set to be ≥0.65 MPa to obtain an EOC315 crystalline form micropowder, with a particle size D90≤15 μm. The X-ray powder diffraction, DSC, and HSM data of the micronized sample were measured using the aforementioned methods, and the results are shown in FIG. 2, FIG. 4, and FIG. 6.

Sequence of VEGFR-2 (Vascular Endothelial Growth Factor Receptor-2) tyrosine kinase (P35968 20-1356): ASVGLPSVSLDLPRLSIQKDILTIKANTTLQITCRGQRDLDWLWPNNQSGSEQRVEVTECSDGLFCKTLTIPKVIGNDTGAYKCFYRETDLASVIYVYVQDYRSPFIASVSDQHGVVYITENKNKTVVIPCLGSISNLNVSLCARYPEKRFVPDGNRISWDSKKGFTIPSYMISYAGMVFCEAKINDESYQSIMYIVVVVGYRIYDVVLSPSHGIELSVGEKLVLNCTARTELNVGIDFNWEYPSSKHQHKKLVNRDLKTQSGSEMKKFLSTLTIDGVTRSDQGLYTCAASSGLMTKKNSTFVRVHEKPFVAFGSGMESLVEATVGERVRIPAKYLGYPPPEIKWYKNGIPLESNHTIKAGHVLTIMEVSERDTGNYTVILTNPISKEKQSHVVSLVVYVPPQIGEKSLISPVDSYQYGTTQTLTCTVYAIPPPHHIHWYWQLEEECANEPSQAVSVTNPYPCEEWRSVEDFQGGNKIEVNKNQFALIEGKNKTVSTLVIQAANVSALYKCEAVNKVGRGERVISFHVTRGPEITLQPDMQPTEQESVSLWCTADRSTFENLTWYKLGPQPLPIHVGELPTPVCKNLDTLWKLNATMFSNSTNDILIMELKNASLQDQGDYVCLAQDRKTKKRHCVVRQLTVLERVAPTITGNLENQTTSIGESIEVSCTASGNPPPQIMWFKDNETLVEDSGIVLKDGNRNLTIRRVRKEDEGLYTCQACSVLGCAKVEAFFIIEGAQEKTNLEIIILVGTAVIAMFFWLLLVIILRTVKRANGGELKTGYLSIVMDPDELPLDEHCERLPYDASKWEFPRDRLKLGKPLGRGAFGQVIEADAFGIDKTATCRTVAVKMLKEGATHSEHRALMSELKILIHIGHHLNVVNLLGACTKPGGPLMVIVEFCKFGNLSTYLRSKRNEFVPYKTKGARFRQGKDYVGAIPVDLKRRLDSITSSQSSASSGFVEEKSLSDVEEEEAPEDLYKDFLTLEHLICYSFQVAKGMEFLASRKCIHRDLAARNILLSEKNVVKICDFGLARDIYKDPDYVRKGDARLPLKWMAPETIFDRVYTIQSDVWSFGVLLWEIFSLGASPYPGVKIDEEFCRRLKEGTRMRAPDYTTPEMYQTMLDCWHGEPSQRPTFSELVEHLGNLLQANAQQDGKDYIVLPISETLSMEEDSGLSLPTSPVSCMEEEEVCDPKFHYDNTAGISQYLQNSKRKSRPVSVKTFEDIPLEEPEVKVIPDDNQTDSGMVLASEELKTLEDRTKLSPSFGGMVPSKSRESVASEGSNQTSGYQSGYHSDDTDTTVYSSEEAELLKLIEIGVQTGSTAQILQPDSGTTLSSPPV

SMILES | proportion of patients without tumor-progression within 6 months ([1]; Kaplan-Meier analysis) [%] | 1-year survival rate [1] [%] | median progression-free survival (PFS) [1] [months] | objective response rate (ORR) ([1]; 39 evaluable subjects) [%] | subjects with complete response ([1]; 39 evaluable subjects) [%] | subjects with partial response ([1]; 39 evaluable subjects) [%] | subjects with stable condition maintained more than 12 weeks ([1]; 39 evaluable subjects) [%] | median overall survival (OS) ([1]; estimated) [months] | median time to progression ([1]; patients showing tumor remission) [months] | IC50 [2] [nM] | IC50 [3] [nM] | crystalline form after micronization [4]
CNC(=O)c1cc(OCc2nnc(Nc3ccc(Cl)cc3)c3ccoc23)ccn1 [EOC315, 4-(4-chloroanilino)-7-(2-methylaminocarbonyl-4-oxymethyl) pyridylfuro[2,3-d]pyridazine mesylate] | 52 | 33 | 4.5 | 67 | 2.6 | 64.1 | 28.2 | 7.8 | 6.4 | 6 | 15 | –
CNC(=O)c1cc(OCc2nnc(Nc3ccc(Cl)cc3)c3ccoc23)ccn1 [micronized EOC315] | – | – | – | – | – | – | – | – | – | – | – | remained unchanged
